# Like-named read-outs stand apart in the source and are kept apart here.
# Experiments:
# p53 = p53 induction / expression (Western blot); type: cell-based; conditions: for p53 induction: words or +/− grades, key not given
# Protocol: (§1) Cells were lysed in a buffer composed of 50 mM Tris, pH 7.6, 150 mM NaCl, 1% Nonidet P-40, 10 mM sodium phosphate, 10 mM NaF, 1 mM sodium orthovanadate, 2 mM phenylmethylsulfonyl fluoride (PMSF), […], 10 μg/mL leupeptin and 10 μg/mL pepstatin. After centrifugation, the clarified cell lysate was separated from the pellet of cell debris, and then incubated with 15 μL Protein G/Protein A-agarose and 1 μg of antibodies, overnight at 4° C. For the Western blot, the resulting cell lysates or immunoprecipitates were resolved by SDS-PAGE. They were then transferred to a nitrocellulose filter and probed with the specific antibodies as listed in the supplemental Materials section. Finally, proteins were visualized with a chemiluminescent detection system.
# 855 line = assay: WST cytotoxicity assay, 855 line; type: cell-based; conditions: read-out: Cancer cell cytotoxicity IC50
# Protocol: (§2) The cytotoxic effect of MX 69 and MX69 analogs on cancer cells was determined using the water-soluble tetrazolium salt (WST) assay. Briefly, cells cultured in 96-well microtiter plates were treated with different concentrations of AQ-101 for a 20-h period. WST (25 μg/well) was then added and incubation continued for an additional 4 h, after which optical density (OD) was read with a microplate reader (test wavelength of 450 nm; reference wavelength of 620 nm).
# 697 cell line = assay: WST cytotoxicity assay, 697 cell line; type: cell-based; conditions: read-out: Cancer cell cytotoxicity IC50
# Protocol: as §2
# MDM2 RING protein [1] = biological target: T1, MDM2 RING protein (Homo sapiens, UniProt Q00987); conditions: Gu et al. Cancer Cell 2016; cited from earlier work
# normal cells/tissues = conditions: Gu et al. Cancer Cell 2016; cited from earlier work
# EU-1 = assay: WST cytotoxicity assay, cancer cell EU-1; type: cell-based, human
# Procedure, shortened: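 Pediatric ALL and NB lines grown in RPMI 1640 with 10% FBS at 37 °C, 5% CO2. Cells were exposed to a range of compound concentrations for 20 h, then WST (25 μg/well) was added for a further 4 h. OD read at 450 nm against a 620 nm reference.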
# in vivo = conditions: mouse
# caspases-3, -9 and PARP = assay: Western blot, cleavage of caspases-3, -9 and PARP in EU-1 cells; type: cell-based
# Protocol: as §1
# MDM2 [2] = biological target: T2, MDM2 (Homo sapiens, UniProt Q00987); assay: MDM2 reduction / expression (Western blot); type: cell-based; conditions: for MDM2 reduction: words or +/− grades, key not given
# T2 construct: ubiquitination of endogenous MDM2 in EU-1 cells; endogenous in cells; host or cells: EU-1 (ALL) cells
# Protocol: as §1
# NB-1643 = assay: WST cytotoxicity assay, NB-1643; type: cell-based; conditions: Homo sapiens; NB-1643 line; read-out: Cancer cell cytotoxicity IC50
# Protocol: (§3) This study used two ALL cell lines (EU-1 and EU-3) and three NB cell lines (NB-1643, SHEP1 and LA1-55N). All 5 cancer cell lines were established from pediatric ALL or NB patients and were well-characterized for their expression of MDM2 and p53-status, as reported previously. All cell lines were grown in standard culture medium (RPMI 1640 containing 10% FBS, 2 mmol/L L-glutamine, 50 U penicillin and 50 μg/mL streptomycin) at 37° C. in a humidified atmosphere containing 5% CO2.
# as §2
# [3] = tested on: human normal bone marrow mononuclear (NBMM) cells; assay: Clonogenic assay for CFU-GM and BFU-E (normal hematopoiesis); type: cell-based; conditions: 1 μM, 14 days
# Protocol: For colony formation of normal human hematopoiesis assay, a bottom layer of low-melting-point, 0.5% agarose (in RPMI 1640 medium plus 10% FBS) was poured into gridded 35 mm dishes and allowed to gel. Cells were cultured in a top layer of 0.35% agarose/medium at 37° C. in a humidified atmosphere containing 5% CO2. After 2-3 weeks, cultures were fixed with formalin and colonies scored.
# MDM2 RING protein [4] = biological target: T1, MDM2 RING protein; assay: Compound-protein binding (ITC) to MDM2 RING protein; conditions: MDM2 RING domain
# Protocol: Isothermal titration calorimetry (ITC) assay was performed using the auto-iTC200 instrument (MicroCal, GE). MDM2 protein was loaded into a 96 DeepWell PP plate, and then compound was titrated stepwise into the protein sample cell using a syringe, for a total of 16 injections (except for the first injection, which was 0.4 μl). The equilibrium time between two adjacent injections was 210 s. The binding stoichiometry (n), binding constant (Kd), and thermodynamic parameters (ΔH and ΔS) were determined by fitting the titration curve to a one-site binding mode, using the Origin software provided by the manufacturer.
# MDM2 [5] = biological target: T2, MDM2; assay: IP-Western blot, ubiquitination of endogenous MDM2 in EU-1 cells; type: cell-based; conditions: 1 μM
# Protocol: as §1
# [6] = tested on: NB cell lines NB-1643, SHEP1 and LA1-55N; assay: WST cytotoxicity assay, NB cell lines; type: cell-based; conditions: Homo sapiens, NB-1643, SHEP1, LA1-55N, 48 h, read-out: IC50, cytotoxicity against NB cell lines
# Protocol: as §3
# (§4) The cytotoxic effect of MX 69 and MX69 analogs on cancer cells was determined using the water-soluble tetrazolium salt (WST) assay. […] WST (25 μg/well) was then added and incubation continued for an additional 4 h, after which optical density (OD) was read with a microplate reader (test wavelength of 450 nm; reference wavelength of 620 nm).
# 91-06 line = assay: WST cytotoxicity assay, 91-06 line; type: cell-based; conditions: no MDM2 and p53, read-out: Cancer cell cytotoxicity IC50
# Protocol: as §2
# DAOY line = assay: WST cytotoxicity assay, DAOY line; type: cell-based; conditions: Homo sapiens; DAOY line with MDM2/no p53; read-out: Cancer cell cytotoxicity IC50
# Protocol: as §2
# XIAP = XIAP inhibition / expression (Western blot); type: cell-based; conditions: EU-1 cells; dose-dependent
# Protocol: as §1
# 855 luc = assay: WST cytotoxicity assay, 855 luc; type: cell-based; conditions: read-out: Cancer cell cytotoxicity IC50
# Protocol: as §2
# p21 and PUMA = assay: Western blot for p53 targets p21 and PUMA in EU-1 cells; type: cell-based
# Protocol: as §1
# LA1-55N = assay: WST cytotoxicity assay, LA1-55N; type: cell-based, human; conditions: line does not express normal p53
# Protocol: as §3, §2
# [7] = tested on: ALL cell lines EU-1 and EU-3; assay: WST cytotoxicity assay, ALL cell lines; type: cell-based; conditions: Homo sapiens, 48 h, read-out: IC50, cytotoxicity against ALL cell lines
# Protocol: as §3, §4
# 93-10 line = assay: WST cytotoxicity assay, 93-10 line; type: cell-based; conditions: 93-10 line no MDM2 and p53; read-out: Cancer cell cytotoxicity IC50
# Protocol: as §2
# XIAP mRNA = assay: Polysome analysis of XIAP mRNA in EU-1 cells; type: cell-based; conditions: 1 μM for 4 h
# Protocol: Cells were incubated with 100 μg/mL cycloheximide (CHX) for 15 min to arrest polyribosome migration, and then lysed (in order to isolate cytoplasmic extracts) in a buffer containing 20 mM Tris-HCl at pH 8.0, 100 mM NaCl, 5 mM MgCl2, 0.5% Triton X-100, 500 U/mL RNAsin, and a cocktail of protease inhibitors. Fractionation was performed on a 15-45% (w/v) sucrose gradient at 39,000 rpm for 1 h (SW41Ti rotor). Fractions were collected by upward replacement in a fractionator (Isco, Lincoln, NE). The RNA from each fraction was subjected to quantitative PCR.
# NB cell lines = assay: Colony formation assay, NB cell lines; type: cell-based, human
# Protocol: A clonogenic assay was used to determine the effect of MX69 analogs on in vitro growth of NB and normal human hematopoietic cells, respectively. For NB1 colony formation assay, cells were harvested with treatment by trypsinization, producing a single-cell suspension, and then 200 cells were seeded into a 6-well plate and cultured for approximately 2 weeks. Colonies were stained with a mixture of 6.0% glutaraldehyde and 0.5% crystal violet for 30 min. Then carefully removed the staining mixture, rinsed with tap water and counted the colonies.
# [8] = Homo sapiens, EU-1, EU-1, no other cell line named in the cell, read-out: Cancer cell (EU-1) cytotoxicity IC50
# T2 sequence (Q00987 whole entry): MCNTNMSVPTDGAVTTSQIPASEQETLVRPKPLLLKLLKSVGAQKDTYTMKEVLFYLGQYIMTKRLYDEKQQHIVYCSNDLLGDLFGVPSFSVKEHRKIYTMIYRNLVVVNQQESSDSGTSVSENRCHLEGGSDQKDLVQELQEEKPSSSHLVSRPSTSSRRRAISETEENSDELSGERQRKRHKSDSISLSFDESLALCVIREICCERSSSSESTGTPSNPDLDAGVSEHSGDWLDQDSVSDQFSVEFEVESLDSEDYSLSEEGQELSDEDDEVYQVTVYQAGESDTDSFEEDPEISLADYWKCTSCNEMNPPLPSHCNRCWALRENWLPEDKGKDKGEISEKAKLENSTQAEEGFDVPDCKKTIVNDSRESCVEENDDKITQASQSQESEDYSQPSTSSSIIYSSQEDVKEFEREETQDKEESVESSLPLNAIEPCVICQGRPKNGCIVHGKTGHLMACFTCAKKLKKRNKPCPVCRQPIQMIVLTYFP
# T1 sequence (Q00987 438-479 limits assumed): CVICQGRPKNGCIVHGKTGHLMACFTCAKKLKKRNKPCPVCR
structure (smiles),measurement,setting,value
Cc1ccc(NS(=O)(=O)c2ccc3c(c2)C2OCC[C@H]2[C@H](C2CCN(C(=O)OC(C)(C)C)CC2)N3)cc1C (stereo partly shown) [Compound 69L64],p53 induction,p53,induction
same,IC50,855 line,1350 nM
same,IC50,697 cell line,280 nM
"Cc1ccc(NS(=O)(=O)c2ccc3c(c2)[C@H]2C=CC[C@H]2[C@H](c2ccc(C(=O)O)cc2)N3)cc1C [MX69, reference compound]",Binding to the RING domain of MDM2,MDM2 RING protein [1],specifically binds to the RING domain of MDM2
same,Toxicity on normal cells/tissues,normal cells/tissues,minimal toxicity
same,IC50,EU-1; [8],7000 nM
same,MTD,in vivo,200 mg/kg
Cc1ccc(NS(=O)(=O)c2ccc3c(c2)C2OCCC2C(c2ccc(C(=O)C(C)C)cc2)N3)cc1C (stereo not shown) [McX69-102],"Time after treatment at which cleavage of caspases-3, -9 and PARP can be detected","caspases-3, -9 and PARP",8 h
"O=S(=O)(Nc1ccc(Cl)c(Cl)c1)c1ccc2c(c1)C1OCC[C@H]1[C@H](C1CCCCC1)N2 (stereo partly shown) [Compound 69L60, 4-cyclohexyl-N-(3,4-dichlorophenyl)-2,3,3a,4,5,9b-hexahydrofuran[3,2-c]quinolone-8-sulfonamine]",IC50,855 line,1810 nM
same,MDM2 reduction,MDM2 [2],Increase
same,IC50,697 cell line,2730 nM
same,IC50,NB-1643,5650 nM
COC(=O)c1ccc(C2Nc3ccc(S(=O)(=O)Nc4ccc(C)c(C)c4)cc3[C@H]3OCC[C@@H]23)cc1 (stereo partly shown) [Compound 69L1],IC50,EU-1; [8],1500 to 6000 nM
same,MTD,in vivo,300 mg/kg
"COc1cccc2c1C(=O)c1c(O)c3c(c(O)c1C2=O)C[C@@](O)(C(=O)CO)C[C@@H]3O[C@H]1C[C@H](N)[C@H](O)[C@H](C)O1 [Dox, doxorubicin]",BFU-E colony numbers and size,[3],significantly reduced
same,CFU-GM colony numbers and size,[3],significantly reduced
"Cc1ccc(NS(=O)(=O)c2ccc3c(c2)C2OCC[C@H]2C(c2ccc(C(=O)C(C)C)cc2)N3)cc1C (stereo partly shown) [Compound 69L52, N-(3,4-dimethylphenyl)-4-(4-isobutyrylphenyl)-2,3,3a,4,5,9b-hexahydrofuran[3,2-c]quinolone-8-sulfonamide]",MDM2 binding affinity as compared with MX69,MDM2 RING protein [4],Increased MDM2 Binding Affinity
same,Ubiquitination of endogenous MDM2,MDM2 [5],induced ubiquitination of endogenous MDM2
same,IC50,[6],500 to 1200 nM
same,p53 expression,"p53; EU-1 cells, accompanying MDM2 downregulation",increased expression
same,p53 induction,p53,induction
same,IC50,855 line,740 nM
same,IC50,91-06 line,3620 nM
same,IC50,DAOY line,2170 nM
same,XIAP expression,XIAP,remarkable downregulation
same,IC50,855 luc,500 nM
same,p53 downstream targets p21 and PUMA,p21 and PUMA,activation
same,Time after treatment at which MDM2 and XIAP downregulation occurred,MDM2 [2]; EU-1 cells,2 to 4 h
same,MDM2 downregulation in presence of MG132,"MDM2 [2]; EU-1 cells, 1 μM for 8 h, then 10 μM MG132 4 h",blocked by MG132
same,MDM2 expression,"MDM2 [2]; EU-1 cells, dose-dependent",remarkable downregulation
same,MDM2 reduction,MDM2 [2],inhibition
same,Cytotoxicity to LA1-55N compared with other cell lines,LA1-55N,much less cytotoxicity
same,IC50,[7],300 to 400 nM
same,IC50,93-10 line,5930 nM
same,IC50,"EU-1; EU-1, no other cell line named in the cell, read-out: Cancer cell (EU-1) cytotoxicity IC50",1100 to 1400 nM
same,IC50,"EU-1; Homo sapiens, EU-1, printed in the Mouse MTD column, control run of the cytotoxicity test, read-out: Value of the compound used as (positive) control alongside the row's compound",460 nM
same,Polyribosome association of XIAP mRNA,XIAP mRNA,downregulation in polyribosome association
same,IC50,697 cell line,450 nM
same,IC50,NB-1643,700 nM
same,"Cleavage of caspases-3, -9 and PARP compared with MX69","caspases-3, -9 and PARP; 69L52 1 μM vs MX69 5 μM",stronger cleavage
same,Colony number and size as compared with controls,NB cell lines; NB cell lines,significant reduction
same,Cell growth in colony formation assay,"NB cell lines; all 3 NB cell lines, two weeks",potently inhibited cell growth
Cc1ccc(NS(=O)(=O)c2ccc3c(c2)C2OCC[C@H]2C(c2cccc4ccccc24)N3)cc1C (stereo partly shown) [Compound 69L63],p53 induction,p53,induction
same,IC50,855 line,6070 nM
same,IC50,697 cell line,3940 nM
Cc1ccc(NS(=O)(=O)c2ccc3c(c2)C2OCC[C@H]2C2(CCCCC2)N3)cc1C (stereo partly shown) [Compound 69L62],IC50,855 line,980 nM
same,MDM2 reduction,MDM2 [2],No MDM2
same,IC50,697 cell line,490 nM
same,IC50,NB-1643,1300 nM
"Cc1ccc(NS(=O)(=O)c2ccc3c(c2)C2OCC[C@H]2[C@H](C2CCCCC2)N3)cc1C (stereo partly shown) [Compound 69L53, 4-cyclohexyl-N-(3,4-dimethylphenyl)-2,3,3a,4,5,9b-hexahydrofuran[3,2-c]quinolone-8-sulfonamine]",MDM2 binding affinity as compared with MX69,MDM2 RING protein [4],Increased MDM2 Binding Affinity
same,p53 induction,p53,induction
same,IC50,855 line,800 nM
same,MDM2 reduction,MDM2 [2],inhibition
same,MTD,in vivo,300 mg/kg
same,IC50,NB-1643,1730 nM

# Reference: patent publication US20240059658A1 (Emory University, priority 2019, published 2024)
